#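 Interpolation was linear, between the two tested concentrations surrounding the appropriate level; five concentrations were tested over 48 hours in 96-well plates. GI50 marks 50% less growth.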 Active and inactive are the calls of the source. No stated cut-off is given here; in the data, active = GI50 up to about 1.1 µM and inactive = higher.
# Key:
# Assay in all cases: inhibition of tumour cell growth, NCI panel, 48 h
# DU-145 = test system: DU-145
# KM12 = test system: KM12
# MDA-MB-231 = test system: MDA-MB-231
# EKVX = test system: EKVX
# SF-268 = test system: SF-268
# HT-29 = test system: HT-29
# K562 = test system: K562
# CCRF-CEM = test system: CCRF-CEM
# PC-3 = test system: PC-3
# UACC-257 = test system: UACC-257
# Hs-578T = test system: Hs-578T
# SK-MEL-28 = test system: SK-MEL-28
# U-251 = test system: U-251
# MDA-N = test system: MDA-N
# NCI-H522 = test system: NCI-H522
# HCT-15 = test system: HCT-15
# OVCAR-5 = test system: OVCAR-5
# SNB-75 = test system: SNB-75
# RPMI-8226 = test system: RPMI-8226
# LOX IMVI = test system: LOX IMVI
# OVCAR-8 = test system: OVCAR-8
# SNB-19 = test system: SNB-19
# SR = test system: SR
# HCC 2998 = test system: HCC 2998
# SK-OV-3 = test system: SK-OV-3
# MCF7 = test system: MCF7
# MDA-MB-435 = test system: MDA-MB-435
# COLO 205 = test system: COLO 205
# ACHN = test system: ACHN
# SW-620 = test system: SW-620
# SK-MEL-5 = test system: SK-MEL-5
# HCT-116 = test system: HCT-116
# IGROV-1 = test system: IGROV-1
# NCI-H460 = test system: NCI-H460
# NCI-H226 = test system: NCI-H226
# SN12C = test system: SN12C
# NCI/ADR-RES = test system: NCI/ADR-RES
# HL-60 = test system: HL-60
# MOLT-4 = test system: MOLT-4
# SF-295 = test system: SF-295
# SK-MEL-2 = test system: SK-MEL-2
# A498 = test system: A498
# SF-539 = test system: SF-539
# HOP-62 = test system: HOP-62
# TK-10 = test system: TK-10
# NCI-H23 = test system: NCI-H23
# 786-0 = test system: 786-0
# A549 = test system: A549
# T47D = test system: T47D
# RXF 393 = test system: RXF 393
# OVCAR-4 = test system: OVCAR-4
# M14 = test system: M14
# HOP-92 = test system: HOP-92
# UO-31 = test system: UO-31
# CAKI-1 = test system: CAKI-1
# OVCAR-3 = test system: OVCAR-3
smiles,measurement,setting,value
c1ncn(C23C4C5C6C4C2C6C53)n1 (stereo not given),GI50,DU-145,> 100 µM (inactive)
same,GI50,KM12,> 100 µM (inactive)
same,GI50,MDA-MB-231,> 100 µM (inactive)
same,GI50,EKVX,> 100 µM (inactive)
same,GI50,SF-268,> 100 µM (inactive)
same,GI50,HT-29,> 100 µM (inactive)
same,GI50,K562,> 100 µM (inactive)
same,GI50,CCRF-CEM,> 100 µM (inactive)
same,GI50,PC-3,> 100 µM (inactive)
same,GI50,UACC-257,> 100 µM (inactive)
same,GI50,Hs-578T,> 100 µM (inactive)
same,GI50,SK-MEL-28,> 100 µM (inactive)
same,GI50,U-251,> 100 µM (inactive)
same,GI50,MDA-N,> 100 µM (inactive)
same,GI50,NCI-H522,> 100 µM (inactive)
same,GI50,HCT-15,> 100 µM
same,GI50,OVCAR-5,> 100 µM (inactive)
same,GI50,SNB-75,> 100 µM (inactive)
same,GI50,RPMI-8226,> 100 µM (inactive)
same,GI50,LOX IMVI,> 100 µM (inactive)
same,GI50,OVCAR-8,> 100 µM (inactive)
same,GI50,SNB-19,> 100 µM (inactive)
same,GI50,SR,> 100 µM (inactive)
same,GI50,HCC 2998,> 100 µM (inactive)
same,GI50,SK-OV-3,> 100 µM (inactive)
same,GI50,MCF7,> 100 µM (inactive)
same,GI50,MDA-MB-435,> 100 µM (inactive)
same,GI50,COLO 205,> 100 µM (inactive)
same,GI50,ACHN,> 100 µM (inactive)
same,GI50,SW-620,> 100 µM (inactive)
same,GI50,SK-MEL-5,> 100 µM (inactive)
same,GI50,HCT-116,> 100 µM (inactive)
same,GI50,IGROV-1,> 100 µM (inactive)
same,GI50,NCI-H460,> 100 µM (inactive)
same,GI50,NCI-H226,> 100 µM (inactive)
same,GI50,SN12C,> 100 µM (inactive)
same,GI50,NCI/ADR-RES,> 100 µM (inactive)
same,GI50,HL-60,> 100 µM (inactive)
same,GI50,MOLT-4,> 100 µM (inactive)
same,GI50,SF-295,> 100 µM (inactive)
same,GI50,SK-MEL-2,> 100 µM (inactive)
same,GI50,A498,> 100 µM (inactive)
same,GI50,SF-539,> 100 µM (inactive)
same,GI50,HOP-62,> 100 µM (inactive)
same,GI50,TK-10,> 100 µM (inactive)
same,GI50,NCI-H23,> 100 µM (inactive)
same,GI50,786-0,> 100 µM (inactive)
same,GI50,A549,> 100 µM (inactive)
same,GI50,T47D,> 100 µM (inactive)
CC(C)=CCC/C(C)=C/C=C/C(C)=C/C=C/C(C)=C/C=C/C=C(C)/C=C/C=C(C)/C=C/[C@H]1C(C(C)(C)O)CC[C@]1(C)O (stereo not given in full),GI50,DU-145,16.9 µM (inactive)
same,GI50,KM12,27.4 µM (inactive)
same,GI50,MDA-MB-231,25.4 µM (inactive)
same,GI50,EKVX,40.6 µM (inactive)
same,GI50,SF-268,19.5 µM (inactive)
same,GI50,RXF 393,17.3 µM (inactive)
same,GI50,HT-29,27.5 µM (inactive)
same,GI50,K562,21.4 µM (inactive)
same,GI50,CCRF-CEM,15.1 µM (inactive)
same,GI50,PC-3,30.3 µM (inactive)
same,GI50,UACC-257,21.8 µM (inactive)
same,GI50,Hs-578T,22.1 µM (inactive)
same,GI50,SK-MEL-28,20.5 µM (inactive)
same,GI50,U-251,20.7 µM (inactive)
same,GI50,MDA-N,25.1 µM (inactive)
same,GI50,NCI-H522,17.3 µM (inactive)
same,GI50,HCT-15,19.4 µM
same,GI50,OVCAR-5,40 µM (inactive)
same,GI50,RPMI-8226,17.7 µM (inactive)
same,GI50,LOX IMVI,23.3 µM (inactive)
same,GI50,OVCAR-8,20.2 µM (inactive)
same,GI50,SR,23 µM (inactive)
same,GI50,HCC 2998,15.5 µM (inactive)
same,GI50,SK-OV-3,56.2 µM (inactive)
same,GI50,MCF7,16.4 µM (inactive)
same,GI50,MDA-MB-435,23 µM (inactive)
same,GI50,OVCAR-4,32.1 µM (inactive)
same,GI50,ACHN,22 µM (inactive)
same,GI50,SW-620,25.8 µM (inactive)
same,GI50,SK-MEL-5,15.5 µM (inactive)
same,GI50,HCT-116,15.7 µM (inactive)
same,GI50,IGROV-1,20.2 µM (inactive)
same,GI50,NCI-H460,29.8 µM (inactive)
same,GI50,M14,28.8 µM (inactive)
same,GI50,NCI-H226,71.1 µM (inactive)
same,GI50,NCI/ADR-RES,32.4 µM (inactive)
same,GI50,HL-60,19.3 µM (inactive)
same,GI50,MOLT-4,20.7 µM (inactive)
same,GI50,HOP-92,12.7 µM (inactive)
same,GI50,SF-295,32.7 µM (inactive)
same,GI50,SK-MEL-2,37 µM (inactive)
same,GI50,A498,27.1 µM (inactive)
same,GI50,SF-539,29.2 µM (inactive)
same,GI50,UO-31,20.2 µM (inactive)
same,GI50,HOP-62,20 µM (inactive)
same,GI50,CAKI-1,33.5 µM (inactive)
same,GI50,TK-10,37.3 µM (inactive)
same,GI50,OVCAR-3,18.8 µM (inactive)
same,GI50,NCI-H23,20.2 µM (inactive)
same,GI50,786-0,21.4 µM (inactive)
same,GI50,T47D,22.9 µM (inactive)

# Source: ChEMBL document CHEMBL1201862, “PubChem BioAssay data set” (2004)
